tested on: kaolin-induced edema of rat hind limb; assay: kaolin-induced edema of rat hind limb (antiinflammatory activity, gavage); assay type: in vivo, rat (Wistar strain, Konarovice breed, female); conditions: po, 1 h, by gavage, once, one hour before kaolin injection, vs untreated control group, footnotes mark + statistically significant, n not statistically significant
Protocol: (§1) As experimental models of inflammation, serving for testing the antiinflammatory activity, there were used the method of kaolin-induced edema of rat hind limb (Hillebrecht J.: Arzneim-Forsch. 9, p. 625, 1959). Kaolin edema of rat hind limb was induced by subplantar injection of 10% kaolin suspension dosed 0.1 ml per animal. The substances tested were administered once, one hour before the injection of kaolin, by gavage with the aid of a metallic gastric sound in the form of aqueous suspension with gum acacia added, in volumes of 1 ml/100 g body weight, equivalent to doses of 25 and 100 mg/kg. The edema of the right hind limb was measured volumetrically on a Volumometer Ugo Basile at hours 1; 1.5; 3; 4.5 and 6 after injection of kaolin. Statistical evaluation was always made in comparison with an untreated control group, and the efficacy of each compound was expressed in percent inhibition of inflammation. Experimental animals: female rats, Wistar strain, Konarovice breed, weighing 130-150 g, experimental groups of 6 animals each. Pelleted diet and drinking water were served ad libitum. This phase of limb edema induced by injection of kaolin suspension represents an acute phase of inflammatory reaction. In addition, orientative tests for oral acute toxicity were carried out with the compounds tested in female mice, S strain, Konarovice breed, weighing 16-20 g. Each compound was administered once by gavage, dosed 1 g/kg, in the form of aqueous suspensions with gum acacia added. Experimental groups of 5 animals each were employed. The deaths were checked for 1 week after administration.

SMILES	inhibition in vivo at 25 mg/kg
O=C(O)Cc1ccc(OCc2ccc(Cl)cc2)c(Cl)c1 [3-Chloro-4-(4'-chlorobenzyloxy) phenylacetic acid]	28%
O=C(O)Cc1ccc(OCc2ccccc2)c(Cl)c1 [3-Chloro-4-benzyloxyphenylacetic acid, 3-chloro-4-benzyloxyphenylacetic acid]	39%
COc1ccc(COc2ccc(CC(=O)O)cc2Cl)cc1Cl [3-chloro-4-(3'-chloro-4'-methoxybenzyloxy) phenylacetic acid]	17%
CC(C(=O)O)c1ccc(OCc2ccccc2)c(Cl)c1 (stereo not drawn) [α-(3-Chloro-4-benzyloxyphenyl)-propionic acid, reference compound]	14%
CC(C(=O)O)c1ccc(OCc2ccc(Cl)cc2)c(Cl)c1 (stereo not drawn) [α-[3-Chloro-4-(4'-chlorobenzyloxy)-phenyl] propionic acid, reference compound]	25%

tested on: not listed separately; assay: orientative test for oral acute toxicity in female mice; conditions: mouse, in vivo, po
Protocol: as §1

SMILES	LD50 at 168 h
CC(C(=O)O)c1ccc(OCc2ccc(Cl)cc2)c(Cl)c1 (stereo not drawn) [α-[3-Chloro-4-(4'-chlorobenzyloxy)-phenyl] propionic acid, reference compound]	> 1000 mg/kg

same assay, conditions: mouse, in vivo; oral (gavage), single dose 1 g/kg, deaths checked for 1 week; read-out: LD50 oral mice

SMILES	LD50 at 168 h
O=C(O)Cc1ccc(OCc2ccc(Cl)cc2)c(Cl)c1 [3-Chloro-4-(4'-chlorobenzyloxy) phenylacetic acid]	> 1000 mg/kg
O=C(O)Cc1ccc(OCc2ccccc2)c(Cl)c1 [3-Chloro-4-benzyloxyphenylacetic acid, 3-chloro-4-benzyloxyphenylacetic acid]	> 1000 mg/kg
COc1ccc(COc2ccc(CC(=O)O)cc2Cl)cc1Cl [3-chloro-4-(3'-chloro-4'-methoxybenzyloxy) phenylacetic acid]	> 1000 mg/kg
CC(C)Oc1ccc(COc2ccc(CC(=O)O)cc2Cl)cc1 [3-chloro-4-(4'-isopropoxybenzyloxy) phenylacetic acid]	< 1000 mg/kg
CC(C(=O)O)c1ccc(OCc2ccccc2)c(Cl)c1 (stereo not drawn) [α-(3-Chloro-4-benzyloxyphenyl)-propionic acid, reference compound]	1000 mg/kg
COc1ccc(COc2ccc(C(C)C(=O)O)cc2Cl)cc1Cl (stereo not drawn) [α-[3-Chloro-4-(3'-chloro-4'-methoxybenzyloxy)phenyl] propionic acid, reference compound]	< 1000 mg/kg
CC(C)Oc1ccc(COc2ccc(C(C)C(=O)O)cc2Cl)cc1 (stereo not drawn) [α-[3-Chloro-4-(4'-isopropoxybenzyloxy)phenyl] propionic acid, reference compound]	< 1000 mg/kg
